# In patent US6878690B2, “Compounds and methods” (PharmAxis Pty Ltd., priority 2000, dated 2005):
# Where “and” joins values, the source holds several entries; their conditions need not be identical. Equal entries are not always repeated.
# What was measured:
# [1] = test system: passively transferred EAE; experiment: Passively transferred EAE induced with encephalitogenic MBP-specific T cell line (Example 23); type: in vivo, Lewis rats; conditions: for clinical scores treated, mean: group mean; for clinical scores treated, mean / clinical scores treated: scale 0 to 5; for clinical scores treated: individual rats, 45 mg/kg/rat/day mini-osmotic pump
# Experimental: In order to study the effect of the agents of the present invention in vivo on a disease caused by T lymphocyte migration into a specific tissue, experiments were performed in the Lewis rat model of passively transferred EAE. Here, myelin basic protein (MBP)-specific T lymphocyte cell lines were generated from the draining lymph nodes of Lewis rats that had been immunised with MBP in Freund's complete adjuvant essentially according to the method of Ben-Nun et al. (1981) as described in Example 8. Thus, in this manner, donor T lymphocytes were generated from female 10 to 12 week old Lewis rats weighing 150 to 200 g. These rats were injected intradermally in a footpad of each hind foot with an emulsion of Guinea pig myelin basic protein (MBP; prepared according to the method of Deibler et al., 1972; incorporated herein by reference) in Freund's complete adjuvant (0.05 ml). The adjuvant emulsion was prepared by emulsifying equal volumes of a mixture of light mineral oil (Sigma) and normal saline containing Guinea pig myelin basic protein (0.5 mg/ml) and Mycobacterium butyricum (4 mg/ml; Difco). Thus, the total dose per rat was 50 micrograms of MBP and 400 micrograms of M. butyricum. Approximately 11 days following injection, the rats were euthanased and the draining lymph nodes (popliteal and inguinal) removed aseptically by blunt dissection and placed into mixed lymphocyte culture medium. This medium was prepared in the normal fashion from Dulbecco's Modified Eagle's Medium (DMEM; GIBCO, Grand Island, N.Y.) supplemented with glucose, folic acid, L-asparagine, sodium bicarbonate, L-glutamine, sodium pyruvate, HEPES, 2-mercaptoethanol (5×10^−5 M), penicillin, streptomycin, neomycin, and 2% fetal calf serum. A single cell suspension was prepared from the lymph nodes in the usual manner by gently pushing the nodes through a stainless steel screen. The cells were washed twice in the culture medium and following this procedure, any red blood cells were lysed in the usual manner by treating with a solution of ammonium chloride, EDTA and sodium hydrogen carbonate (pH 7.3) and the preparation strained (Falcon 2350 cell strainer). The cells were washed again in the lymphocyte culture medium. All cell preparative steps were performed on ice. These cells were cultured asceptically for 72 hours at 37° C. in a humidified atmosphere containing 7.5% carbon dioxide at a concentration of 5 million cells per milliliter in the presence of MBP (0.06 mg/ml). The cells were collected and the lymphoblasts were isolated by centrifugation on a Ficoll (Pharmacia, Uppsala, Sweden) gradient in an identical manner to that described by Ben Nun et al. (1981). The fraction containing ≧90% lymphoblasts was cultured and propagated in Eagle's medium supplemented with 15% of a concanavalin A-stimulated lymphocyte supernatant to provide growth factors, 10% fetal calf serum, nonessential amino acids (Bio-Lab, Jerusalem, Israel); sodium pyruvate, 2-mercapto ethanol and antibiotics without added antigen. The cells were plated in 100 mm petri dishes at a concentration of 0.2 million cells/ml and replated every 3 or 4 days. Prior to transfer into Lewis recipients, the cells were restimulated in the presence of MBP (0.01 mg/ml) and irradiated syngeneic thymocytes for 4 days.
# These cells were highly encephalitogenic sine as few as 500,000 cells were capable of inducing disease when injected into naïve Lewis rats. Thus, in a typical experiment a group of 5 female Lewis rats, approximately 9 weeks old, weighing 110±15 grams were anesthetised with diethyl ether and implanted with mini-osmotic pumps (Alzet 2002, Alza Corp., Palo Alto Calif., USA) containing phosphoric acid mono-(6-propyl-3,4,5-trihydroxy-tetrahydro-pyran-2-ylmethyl) ester mono sodium salt dissolved in normal saline at a concentration that delivered the drug at a rate of 45 mg/kg/rat/day. […]
# [2] = test system: passively transferred adjuvant arthritis; experiment: Passively transferred adjuvant induced arthritis; type: in vivo, DA rats; conditions: 25 mg/kg/day, end of the one week treatment period, FIG. 1
# Experimental: Male DA rats 8 to 10 week old were immunised with three 100 microliter injections of Complete Freund's Adjuvant (CFA) intradermally at the base of the tail. The CFA was prepared by mixing 8 mg/ml of Mycobacterium butyricum (Difco Laboratories, USA) that had been ground to a fine powder using a mortar and pestle, in 85% light mineral oil (Sigma, USA) and 15% mannide monooleate (Sigma) and emulsifying this suspension, one part in one part saline. Thus, the final emulsion contained 4 mg/ml of M. butyricum.
# Ten days after immunisation the rats were euthanased and the spleens removed aseptically. A single cell suspension was prepared in the usual manner in mixed lymphocyte culture medium (MLC) (Dulbecco's Modified Eagle's Medium (DMEM) plus glucose, folic acid, L-asparagine, sodium pyruvate, HEPES, 2-mercapto ethanol, penicillin, streptomycin, neomycin and 10% fetal calf serum) by pushing the spleens through a stainless steel sieve. The cells were placed in culture in MLC medium with 2 micrograms/ml concanavalin A added such that the lymphocyte concentration was 2 million cells per milliliter. These cells were cultured aseptically at 37° C. in an atmosphere containing 5% carbon dioxide for 72 hours.
# Groups of 4 or 5 DA rats, 6 to 8 weeks of age were anesthetised with diethyl ether and implanted subcutaneously on the flank with Alzet 2002 (2 week delivery) or 2001 (1 week delivery) mini-osmotic pumps (Alza Corp., Palo Alto Calif., USA). One treatment group received phosphoric acid mono-(6-propyl-3,4,5-trihydroxy-tetrahydro-pyran-2-ylmethyl) ester in the one week delivery Alzet 2001 mini-osmotic pumps. The drug was delivered at a dose of 25 mg/kg/day. The control group for this experiment received identical mini-osmotic pumps containing normal saline. In a second experiment another group of DA rats received ethyl (3,4,5-trihydroxy-6-phosphonooxymethyl-tetrahydro-pyran-2-yl)-acetic acid ester in the two week delivery Alzet 2002 mini-osmotic pumps. This drug was delivered at a dose of 37 mg/kg/day. Control animals for this group received saline delivered in identical mini-osmotic pumps. The pumps in each case were implanted subcutaneously on the flank of each animal. […]
# After 5 to 8 days, a characteristic thickening and cutaneous hyperemia of the distal joints of the hind legs became clinically apparent in the saline control animals. Disease severity was evaluated and graded in each group by taking daily measurements of the mediolateral widths of both ankle joints. The data were expressed as the mean of the change (compared with width prior to cell injection) in mediolateral ankle width expressed in millimeters (±standard error of the mean).
structure (smiles),measurement,setting,value
"CCCC1OC(COP(=O)(O)O)C(O)C(O)C1O (stereo not drawn) [phosphoric acid mono-(6-propyl-3,4,5-trihydroxy-tetrahydro-pyran-2-ylmethyl) ester]","clinical scores treated, mean","[1]; day 4, 45 mg/kg/rat/day",0
same,clinical scores treated,[1]; day 4,0
same,"clinical scores treated, mean","[1]; day 5, 45 mg/kg/rat/day",0.6
same,clinical scores treated,"[1]; day 5, 45 mg/kg",1 (3×) and 0 (2×)
same,"clinical scores treated, mean","[1]; day 6, 45 mg/kg/rat/day",1
same,clinical scores treated,"[1]; day 6, 45 mg/kg",2 (2×) and 0 (2×) and 1
same,"clinical scores treated, mean","[1]; day 7, 45 mg/kg/rat/day",0.4
same,clinical scores treated,"[1]; day 7, 45 mg/kg",0 (3×) and 1 (2×)
same,Mean maximum clinical score,"[1]; treated group, 45 mg/kg/rat/day, control group 2.0",clinical score 1.0
same,disease index (DI),"[1]; treated group, 45 mg/kg/rat/day, control group DI 160",DI 40
same,swelling in the affected joints of treated animals,"[2]; one week Alzet 2001 pump subcutaneously, controls severe swelling",little swelling
same,disease status of the treated versus the control animals,[2]; one week Alzet 2001 pump,highly statistically significant difference
